From patent US9073855B2, “BCL-2 selective apoptosis-inducing agents for the treatment of cancer and immune diseases” (AbbVie Inc., priority 2008, dated 2015)

Columns and labels:
[1] = target: GST-Bcl-2 (Homo sapiens, UniProt P10415); assay: TR-FRET binding assay, GST-Bcl-2 with F-Bak peptide probe; details: for Ki: TR-FRET Binding Affinity
Summary of the method: (§1)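 Displacement of a fluorescein-labelled Bak peptide from the GST-tagged protein was followed by time-resolved FRET with a terbium anti-GST donor after 3 h incubation at room temperature. Inhibition constants were calculated with Wang's equation.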

[2] = target: GST-Bcl-XL (Homo sapiens, UniProt Q07817); assay: TR-FRET binding assay, GST-Bcl-XL with F-Bak peptide probe; details: TR-FRET Binding Affinity
GST-Bcl-XL, sequence (Q07817 whole entry): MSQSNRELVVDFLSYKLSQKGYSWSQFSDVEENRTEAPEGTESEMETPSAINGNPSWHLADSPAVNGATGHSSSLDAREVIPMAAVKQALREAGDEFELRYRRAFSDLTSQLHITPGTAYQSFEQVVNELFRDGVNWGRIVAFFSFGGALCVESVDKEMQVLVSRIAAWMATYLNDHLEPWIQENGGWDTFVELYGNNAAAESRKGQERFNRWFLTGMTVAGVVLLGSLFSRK
Summary of the method: as §1

[3] = TR-FRET, Bcl-XL Ki divided by Bcl-2 Ki
[4] = ratio of TR-FRET Ki values, Bcl-XL over Bcl-2
[5] = GST-Bcl-XL, F-Bak peptide probe

GST-Bcl-2, sequence (P10415 whole entry): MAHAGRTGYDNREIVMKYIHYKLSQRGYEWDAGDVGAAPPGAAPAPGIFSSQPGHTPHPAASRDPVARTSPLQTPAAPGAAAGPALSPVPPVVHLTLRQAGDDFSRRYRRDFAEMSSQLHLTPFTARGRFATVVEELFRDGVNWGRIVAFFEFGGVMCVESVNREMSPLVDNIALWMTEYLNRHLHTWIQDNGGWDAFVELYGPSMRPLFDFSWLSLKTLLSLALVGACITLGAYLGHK

SMILES | Ki [1] | Ki [2] | Binding selectivity ratio (Bcl-XL Ki/Bcl-2 Ki) [1, 3] | Ki ([1]; GST-Bcl-2, F-Bak peptide probe) | Binding selectivity ratio (Bcl-XL Ki/Bcl-2 Ki) [1, 4] | Ki [2, 5]
CC1(C)CCC(CN2CCN(c3ccc(C(=O)NS(=O)(=O)c4ccc(OCC5COCCO5)c([N+](=O)[O-])c4)c(Oc4cccc5[nH]ncc45)c3)CC2)=C(c2ccc(Cl)cc2)C1 (stereo not drawn) [Example 447, 4-(4-{[2-(4-chlorophenyl)-4,4-dimethylcyclohex-1-en-1-yl]methyl}piperazin-1-yl)-N-{[4-(1,4-dioxan-2-ylmethoxy)-3-nitrophenyl]sulfonyl}-2-(1H-indazol-4-yloxy)benzamide] | 0.028 nM | 65.8 nM | – | – | – | –
CC1(C)CCC(CN2CCN(c3ccc(C(=O)NS(=O)(=O)c4ccc(NC[C@H]5CC[C@H](C#N)CC5)c([N+](=O)[O-])c4)c(Oc4cccc5[nH]cnc45)c3)CC2)=C(c2ccc(Cl)cc2)C1 [Example 462, Trans-2-(1H-benzimidazol-4-yloxy)-4-(4-{[2-(4-chlorophenyl)-4,4-dimethylcyclohex-1-en-1-yl]methyl}piperazin-1-yl)-N-[(4-{[(4-cyanocyclohexyl)methyl]amino}-3-nitrophenyl)sulfonyl]benzamide] | 0.026 nM | 18.4 nM | – | – | – | –
CC1(C)CCC(CN2CCN(c3ccc(C(=O)NS(=O)(=O)c4cnc(OCC5(F)CCOCC5)c(Cl)c4)c(Oc4cccc5[nH]nnc45)c3)CC2)=C(c2ccc(Cl)cc2)C1 [Example 515, 2-(1H-benzotriazol-4-yloxy)-N-({5-chloro-6-[(4-fluorotetrahydro-2H-pyran-4-yl)methoxy]pyridin-3-yl}sulfonyl)-4-(4-{[2-(4-chlorophenyl)-4,4-dimethylcyclohex-1-en-1-yl]methyl}piperazin-1-yl)benzamide] | < 0.01 nM | 140 nM | >13994.0 | – | – | –
COCCOCCN1CCO[C@H](CNc2ccc(S(=O)(=O)NC(=O)c3ccc(N4CCN(CC5=C(c6ccc(Cl)cc6)CC(C)(C)CC5)CC4)cc3Oc3cccc4[nH]cnc34)cc2[N+](=O)[O-])C1 [Example 455, 2-(1H-benzimidazol-4-yloxy)-4-(4-{[2-(4-chlorophenyl)-4,4-dimethylcyclohex-1-en-1-yl]methyl}piperazin-1-yl)-N-({4-[({(2R)-4-[2-(2-methoxyethoxy)ethyl]morpholin-2-yl}methyl)amino]-3-nitrophenyl}sulfonyl)benzamide] | 0.004 nM | 0.619 nM | 139.4 | – | – | –
CC1(C)CCC(CN2CCN(c3ccc(C(=O)NS(=O)(=O)c4cnc(OCC5(F)CCC(C)(O)CC5)c(Cl)c4)c(Oc4cccc5[nH]ncc45)c3)CC2)=C(c2ccc(Cl)cc2)C1 (stereo not drawn) [Example 512, N-({5-chloro-6-[(cis-1-fluoro-4-hydroxy-4-methylcyclohexyl)methoxy]pyridin-3-yl}sulfonyl)-4-(4-{[2-(4-chlorophenyl)-4,4-dimethylcyclohex-1-en-1-yl]methyl}piperazin-1-yl)-2-(1H-indazol-4-yloxy)benzamide] | < 0.01 nM | 17.3 nM | >1733.8 | – | – | –
CC1(C)CCC(CN2CCN(c3ccc(C(=O)NS(=O)(=O)c4cnc(NCC5(F)CCOCC5)c(Cl)c4)c(Oc4cccc5[nH]ncc45)c3)CC2)=C(c2ccc(Cl)cc2)C1 [Example 413, N-[(5-chloro-6-{[(4-fluorotetrahydro-2H-pyran-4-yl)methyl]amino}pyridin-3-yl)sulfonyl]-4-(4-{[2-(4-chlorophenyl)-4,4-dimethylcyclohex-1-en-1-yl]methyl}piperazin-1-yl)-2-(1H-indazol-4-yloxy)benzamide] | – | – | – | 0.12 nM | 803.8 | 96.8 nM
CC1(C)CCC(CN2CCN(c3ccc(C(=O)NS(=O)(=O)c4cnc(OCC5CCOCC5)c(F)c4)c(Oc4cccc5[nH]ncc45)c3)CC2)=C(c2ccc(Cl)cc2)C1 [Example 487, 4-(4-{[2-(4-chlorophenyl)-4,4-dimethylcyclohex-1-en-1-yl]methyl}piperazin-1-yl)-N-{[5-fluoro-6-(tetrahydro-2H-pyran-4-ylmethoxy)pyridin-3-yl]sulfonyl}-2-(1H-indazol-4-yloxy)benzamide] | 0.033 nM | 75.4 nM | 2287.2 | – | – | –
CC1(C)CCC(CN2CCN(c3ccc(C(=O)NS(=O)(=O)c4cnc(OCC5(F)CCOCC5)c(Cl)c4)c(Oc4cccc5[nH]cnc45)c3)CC2)=C(c2ccc(Cl)cc2)C1 [Example 443, 2-(1H-benzimidazol-4-yloxy)-N-({5-chloro-6-[(4-fluorotetrahydro-2H-pyran-4-yl)methoxy]pyridin-3-yl}sulfonyl)-4-(4-{[2-(4-chlorophenyl)-4,4-dimethylcyclohex-1-en-1-yl]methyl}piperazin-1-yl)benzamide] | < 0.01 nM | 19.4 nM | – | – | – | –
O=C(NS(=O)(=O)c1ccc(NCCCN2CCOCC2)c([N+](=O)[O-])c1)c1ccc(N2CCN(Cc3ccccc3-c3ccc(Cl)cc3)CC2)cc1Oc1ccc2ccccc2c1 [Example 36, 4-{4-[(4′-chloro-1,1′-biphenyl-2-yl)methyl]piperazin-1-yl}-N-({4-[(3-morpholin-4-ylpropyl)amino]-3-nitrophenyl}sulfonyl)-2-(2-naphthyloxy)benzamide] | – | – | – | 0.796 nM | – | 8.99 nM
CC1(C)CCC(CN2CCN(c3ccc(C(=O)NS(=O)(=O)c4cnc(OCC5(F)CCOCC5)c(C#N)c4)c(Oc4cccc5[nH]ccc45)c3)CC2)=C(c2ccc(Cl)cc2)C1 [Example 393, 4-(4-{[2-(4-chlorophenyl)-4,4-dimethylcyclohex-1-en-1-yl]methyl}piperazin-1-yl)-N-({5-cyano-6-[(4-fluorotetrahydro-2H-pyran-4-yl)methoxy]pyridin-3-yl}sulfonyl)-2-(1H-indol-4-yloxy)benzamide] | – | – | – | 0.083 nM | 1109.6 | 92.1 nM
O=C(NS(=O)(=O)c1ccccc1OCCN1CCCCC1)c1ccc(N2CCN(Cc3ccccc3-c3ccc(Cl)cc3)CC2)cc1Oc1ccccc1 [Example 32, 4-{4-[(4′-chloro-1,1′-biphenyl-2-yl)methyl]piperazin-1-yl}-2-phenoxy-N-{[2-(2-piperidin-1-ylethoxy)phenyl]sulfonyl}benzamide] | – | – | – | 61.1 nM | – | > 660 nM
CN(C)CCCNc1ccc(S(=O)(=O)NC(=O)c2ccc(N3CCN(Cc4ccccc4-c4ccc(Cl)cc4)CC3)cc2Oc2ccc3cc[nH]c3c2)cc1[N+](=O)[O-] [Example 47, 4-{4-[(4′-chloro-1,1′-biphenyl-2-yl)methyl]piperazin-1-yl}-N-[(4-{[3-(dimethylamino)propyl]amino}-3-nitrophenyl)sulfonyl]-2-(1H-indol-6-yloxy)benzamide] | – | – | – | 6.63 nM | – | 104 nM
CC1(C)CC(c2ccc(Cl)cc2)=C(CN2CCN(c3ccc(C(=O)NS(=O)(=O)c4ccc(OCC5(F)CCOCC5)c(Cl)c4)c(Oc4cccc5[nH]ncc45)c3)CC2)CO1 [Example 496, N-({3-chloro-4-[(4-fluorotetrahydro-2H-pyran-4-yl)methoxy]phenyl}sulfonyl)-4-(4-{[4-(4-chlorophenyl)-6,6-dimethyl-5,6-dihydro-2H-pyran-3-yl]methyl}piperazin-1-yl)-2-(1H-indazol-4-yloxy)benzamide] | 0.078 nM | 43.3 nM | 558.9 | – | – | –
